Source: US20120225417A1, “Methods, Compositions and Kits for the Evaluation and Preservation of Sperm” (I'Alliance Boviteq Inc., priority 2011, published 2012)

Assays:
[1] = test system: 3′-5′ cAMP-PDE activity in bovine spermatozoa; assay: 3′-5′ cAMP-PDE assay with family-specific PDE inhibitors in bovine spermatozoa; assay type: biochemical; settings: for Percentage of sensitive PDE activity, Cryo (B): cryopreserved bovine spermatozoa; for Percentage of sensitive PDE activity, Cryo (B) / Percentage of sensitive PDE activity, Fresh (A): Cil 10 μM, Rol 10 μM, Papa 400 nM
Method: The semen was obtained from different Holstein bulls. The fresh ejaculated semen was kept in an insulated thermos flask, at 18° C., during transportation to the laboratory and processed within 3 hours after collection. The cryopreserved semen was obtained at the Centre d'Insémination […] du Québec (CIAQ) […]. The cryopreserved straws of semen were prepared according to CIAQ procedures. […] After cutting one end of the straw the semen was collected in a 15 ml falcon while cutting the other end. From this point fresh and cryopreserved semen were processed similarly. Approximately 50 μL of the semen was added to 5 mL of Talp-BSA medium in a 15 mL falcon tube to wash the spermatozoa. After centrifugation (280×g, 10 min, room temperature), the remaining pellet of approximately 100 μL was resuspended in Talp-BSA medium (500 μl for the fresh and 200 μl for two straws) to reach a concentration of 1×10^6 cells/10 μL. The samples were then vortex-agitated for 30 sec and kept on the ice until ready to run the assay. The concentration of sperm cells was measured according to hemacytometer method. The cAMP enzymatic assay (PDE assay) was conducted as previously described ([…]. et al., (2006). […] J. et al., (1979). Adv Cyclic Nucleotide Res 10, 69-92) with minor modifications. […] Measurements were also performed in the presence of PDE inhibitors: […] Cilostamide and Rolipram were purchased from Biomol. […] Each PDE assay was performed in triplicate for each experiment and each experiment was repeated at least three times. As described ([…]. et al., (2009). […] IBMX-sensitive PDE5 and PDE6 and IBMX-insensitive PDE9 activities are absent from these groups because cGMP is the specific substrate and then are not detected in the cAMP-PDE assay. […] J Dairy Sci 92, 3757-3765; […]., et al. (2007). Endocrinology 148, 1858-1867; Siuciak, J. A. et al., (2006). Neuropharmacology 51, 386-396).

[2] = test system: 3′-5′ cAMP-PDE activity in bovine testis, caput, cauda and seminal vesicles homogenates; assay: 3′-5′ cAMP-PDE assay in bovine testis, caput, cauda and seminal vesicles homogenates; assay type: biochemical; settings: Rol 10 μM, Papa 400 nM (FIG. 3)
Method: After thoroughly vortex-agitating for about one minute, samples were centrifuged at 10 000×g for 4 minutes at room temperature. Supernatant fluid was collected and diluted in different volumes of hypotonic buffer depending on the tissue. Testis, caput and cauda homogenates were diluted in 1 mL of hypotonic buffer while seminal vesicle homogenates were diluted in 2 mL of hypotonic buffer. Homogenates were kept on ice until subjected to PDE assay. The cAMP enzymatic assay (PDE assay) was conducted as previously described ([…]. et al., (2006). BMC developmental biology 6, 47). […] J. et al., (1979). Adv Cyclic Nucleotide Res 10, 69-92) with minor modifications. […] Measurements were also performed in the presence of PDE inhibitors: […] Cilostamide and Rolipram were purchased from Biomol. […] Each PDE assay was performed in triplicate for each experiment and each experiment was repeated at least three times. As described ([…]. et al., (2009). […] IBMX-sensitive PDE5 and PDE6 and IBMX-insensitive PDE9 activities are absent from these groups because cGMP is the specific substrate and then are not detected in the cAMP-PDE assay. […] J Dairy Sci 92, 3757-3765; […]., et al. (2007). Endocrinology 148, 1858-1867; Siuciak, J. A. et al., (2006). Neuropharmacology 51, 386-396).

Question: For `COc1ccc(Cc2nccc3cc(OC)c(OC)cc23)cc1OC` [Papaverine], which “Percentage of family specific sensitive PDE activity, 3 h Egg yolk” value ([1]; bovine spermatozoa after 3 h in egg yolk based cryoprotectant at 18° C.) is on record?
Answer: Its value is 60%.

Question: And the “Percentage of family specific sensitive PDE activity, 3 h Liquid semen” value ([1]; bovine spermatozoa after 3 h in liquid semen extender at 18° C.)?
Answer: The value was 56%.

Question: And the “Percentage of family specific sensitive PDE activity, 3 h 4° C.” value ([1]; bovine spermatozoa after 3 h in seminal plasma at 4° C.)?
Answer: Its value is 60%.

Question: And the “Percentage of family specific sensitive PDE activity, 3 h 18° C.” value ([1]; bovine spermatozoa after 3 h in seminal plasma at 18° C.)?
Answer: The value was 59%.

Question: And the “Percentage of family specific sensitive PDE activity, Fresh” value ([1]; bovine spermatozoa rapidly after ejaculation (0 h))?
Answer: The value was 57%.

Question: And the “Percentage of total PDE activity sensitive to the inhibitor” value ([1]; bovine spermatozoa, 1 μM cAMP, IBMX 1 mM, cilostamide 10 μM, rolipram 10 μM, papaverine 400 nM (FIG. 12B))?
Answer: The value was 55%.

Question: What about the “Percentage of sensitive PDE activity, Cryo (B)” value ([1]; IBMX 1 mM) of the same compound?
Answer: The value was 50%.

Question: And the “Percentage of sensitive PDE activity, Cryo (B)” value ([1]; IBMX 1 mM, listed as papaverine)?
Answer: Its value is 49.8%.

Question: What about the “Share of 3′-5′ cAMP-PDE activity inhibited (papaverine-sensitive)” value ([1]; freshly ejaculated bovine spermatozoa, papaverine 400 nM (FIG. 21)) of the same compound?
Answer: The value was “more than 50%”.

Question: And the “Percentage of sensitive PDE activity, Fresh (A)” value ([1]; freshly ejaculated bovine spermatozoa, IBMX 1 mM)?
Answer: Its value is 57%.

Question: What about the “Percentage of sensitive PDE activity, Fresh (A)” value ([1]; freshly ejaculated bovine spermatozoa, IBMX 1 mM, listed as papaverine) of the same compound?
Answer: Its value is 57.1%.

Question: What about the “Inhibitor-sensitive PDE activity in bovine male reproductive tissues (in words)” value [2] of the same compound?
Answer: Its value is “low percentage”.
